Assay: Phase I dose escalation study: safety, tolerability, DLT and MTD
Format: in vivo

SMILES: Cc1cccc2c1NC(=O)[C@@H](NC(=O)[C@H](CCC(F)(F)F)[C@H](CCC(F)(F)F)C(N)=O)N=C2c1cccc(F)c1 [BMS-986115]
- Gr 3/4 diarrhoea related to the study treatment (1.5 mg QD, 2 of 7 patients): 29%
- Time for Gr 3/4 diarrhoea to resolve to Gr 1 (1.5 mg QD, with appropriate medical management): ≤ 24 h
- Abdominal distension (drug related AE, all grades) (All patients (N = 36)): 2 (6) n (%)
- Abdominal pain (drug related AE, Grade 3 and 4) (All patients (N = 36)): 1 (3) n (%)
- Abdominal pain (drug related AE, all grades) (All patients (N = 36)): 3 (8) n (%)
- Blood creatinine increased (drug related AE, all grades) (All patients (N = 36)): 2 (6) n (%)
- Colitis (drug related AE, Grade 3 and 4) (All patients (N = 36)): 1 (3) n (%)
- Cough (drug related AE, Grade 3 and 4) (All patients (N = 36)): 1 (3) n (%)
- Cough (drug related AE, all grades) (All patients (N = 36)): 4 (11) n (%)
- Decreased Appetite (drug related AE, Grade 3 and 4) (All patients (N = 36)): 1 (3) n (%)
- Decreased Appetite (drug related AE, all grades) (All patients (N = 36)): 13 (36) n (%)
- Dehydration (drug related AE, Grade 3 and 4) (All patients (N = 36)): 1 (3) n (%)
- Dehydration (drug related AE, all grades) (All patients (N = 36)): 5 (14) n (%)
- Dermatitis acneiform (drug related AE, all grades) (All patients (N = 36)): 4 (11) n (%)
- Diarrhoea (drug related AE, Grade 3 and 4) (All patients (N = 36)): 7 (19) n (%)
- Diarrhoea (drug related AE, all grades) (All patients (N = 36)): 26 (72) n (%)
- Dry mouth (drug related AE, all grades) (All patients (N = 36)): 3 (8) n (%)
- Dry skin (drug related AE, all grades) (All patients (N = 36)): 5 (14) n (%)
- Dysgeusia (drug related AE, all grades) (All patients (N = 36)): 5 (14) n (%)
- Dyspepsia (drug related AE, all grades) (All patients (N = 36)): 3 (8) n (%)
- Dysphonia (drug related AE, all grades) (All patients (N = 36)): 5 (14) n (%)
- Fatigue (drug related AE, Grade 3 and 4) (All patients (N = 36)): 1 (3) n (%)
- Fatigue (drug related AE, all grades) (All patients (N = 36)): 16 (44) n (%)
- Flatulence (drug related AE, all grades) (All patients (N = 36)): 3 (8) n (%)
- Hypocalcaemia (drug related AE, Grade 3 and 4) (All patients (N = 36)): 1 (3) n (%)
- Hypocalcaemia (drug related AE, all grades) (All patients (N = 36)): 2 (6) n (%)
- Hypokalaemia (drug related AE, Grade 3 and 4) (All patients (N = 36)): 4 (11) n (%)
- Hypokalaemia (drug related AE, all grades) (All patients (N = 36)): 10 (28) n (%)
- Hyponatraemia (drug related AE, Grade 3 and 4) (All patients (N = 36)): 2 (6) n (%)
- Hyponatraemia (drug related AE, all grades) (All patients (N = 36)): 2 (6) n (%)
- Hypophosphataemia (drug related AE, Grade 3 and 4) (All patients (N = 36)): 14 (39) n (%)
- Hypophosphataemia (drug related AE, all grades) (All patients (N = 36)): 23 (64) n (%)
- Ileus (drug related AE, Grade 3 and 4) (All patients (N = 36)): 1 (3) n (%)
- Increased upper airway secretion (drug related AE, all grades) (All patients (N = 36)): 3 (8) n (%)
- Laryngeal pain (drug related AE, all grades) (All patients (N = 36)): 2 (6) n (%)
- Leucocytosis (drug related AE, Grade 3 and 4) (All patients (N = 36)): 1 (3) n (%)
- Mouth ulceration (drug related AE, all grades) (All patients (N = 36)): 3 (8) n (%)
- Nausea (drug related AE, Grade 3 and 4) (All patients (N = 36)): 4 (11) n (%)
- Nausea (drug related AE, all grades) (All patients (N = 36)): 22 (61) n (%)
- Pruritus (drug related AE, Grade 3 and 4) (All patients (N = 36)): 1 (3) n (%)
- Pruritus (drug related AE, all grades) (All patients (N = 36)): 9 (25) n (%)
- Pulmonary embolism (drug related AE, Grade 3 and 4) (All patients (N = 36)): 1 (3) n (%)
- Rash (drug related AE, all grades) (All patients (N = 36)): 11 (31) n (%)
- Rash maculopapular (drug related AE, all grades) (All patients (N = 36)): 5 (14) n (%)
- Sinusitis (drug related AE, all grades) (All patients (N = 36)): 2 (6) n (%)
- Urticaria (drug related AE, Grade 3 and 4) (All patients (N = 36)): 1 (3) n (%)
- Vision blurred (drug related AE, all grades) (All patients (N = 36)): 2 (6) n (%)
- Vomiting (drug related AE, Grade 3 and 4) (All patients (N = 36)): 1 (3) n (%)
- Vomiting (drug related AE, all grades) (All patients (N = 36)): 16 (44) n (%)
- Weight decreased (drug related AE, all grades) (All patients (N = 36)): 2 (6) n (%)
- Subjects with treatment-related SAEs (Arm A QD): 6 subjects
- Abdominal distension (drug related AE, all grades) (Arm A QD 0.3 mg (N = 2)): 0 n (%)
- Abdominal pain (drug related AE, Grade 3 and 4) (Arm A QD 0.3 mg (N = 2)): 0 n (%)
- Abdominal pain (drug related AE, all grades) (Arm A QD 0.3 mg (N = 2)): 0 n (%)
- Blood creatinine increased (drug related AE, all grades) (Arm A QD 0.3 mg (N = 2)): 0 n (%)
- Colitis (drug related AE, Grade 3 and 4) (Arm A QD 0.3 mg (N = 2)): 0 n (%)
- Cough (drug related AE, Grade 3 and 4) (Arm A QD 0.3 mg (N = 2)): 0 n (%)
- Cough (drug related AE, all grades) (Arm A QD 0.3 mg (N = 2)): 0 n (%)
- Decreased Appetite (drug related AE, Grade 3 and 4) (Arm A QD 0.3 mg (N = 2)): 0 n (%)
- Decreased Appetite (drug related AE, all grades) (Arm A QD 0.3 mg (N = 2)): 0 n (%)
- Dehydration (drug related AE, Grade 3 and 4) (Arm A QD 0.3 mg (N = 2)): 0 n (%)
- Dehydration (drug related AE, all grades) (Arm A QD 0.3 mg (N = 2)): 0 n (%)
- Dermatitis acneiform (drug related AE, all grades) (Arm A QD 0.3 mg (N = 2)): 0 n (%)
- Diarrhoea (drug related AE, Grade 3 and 4) (Arm A QD 0.3 mg (N = 2)): 0 n (%)
- Diarrhoea (drug related AE, all grades) (Arm A QD 0.3 mg (N = 2)): 0 n (%)
- Dry mouth (drug related AE, all grades) (Arm A QD 0.3 mg (N = 2)): 0 n (%)
- Dry skin (drug related AE, all grades) (Arm A QD 0.3 mg (N = 2)): 0 n (%)
- Dysgeusia (drug related AE, all grades) (Arm A QD 0.3 mg (N = 2)): 0 n (%)
- Dyspepsia (drug related AE, all grades) (Arm A QD 0.3 mg (N = 2)): 0 n (%)
- Dysphonia (drug related AE, all grades) (Arm A QD 0.3 mg (N = 2)): 0 n (%)
